Converted amounts (≈) assume the structure as drawn. Where two headings read alike, the source gives them in different places.
How the values were obtained:
[1] = tested on: P. falciparum W-2 clone; assay: In vitro antimalarial activity, P. falciparum W-2 clone; assay type: cell-based; conditions: for IC50: Plasmodium falciparum; for times as potent as QHS against the W-2 clone: relative to QHS
Source text: (§1) The analogs have been segregated arbitrarily here into those compounds in which the tetracyclic skeleton is intact (Table 2) and various ring-cleaved analogs (Table 3). The activities of the conventional malaria therapeutics chloroquine, mefloquine, and pyrimethamine is included for comparison.

[2] = tested on: P. falciparum D-6 clone; assay: In vitro antimalarial activity, P. falciparum D-6 clone; assay type: cell-based; conditions: for IC50: Plasmodium falciparum; for times as potent as QHS against the D-6 clone: relative to QHS
Source text: as §1

[3] = Table 2, W-2 clone, drug-resistant strains of P. falciparum, read-out: IC50 W-2 clone
[4] = Table 2, W-2 clone, drawing 57 (artemisinin) = 100
[5] = Table 2, D-6 clone, drug-resistant strains of P. falciparum, read-out: IC50 D-6 clone
[6] = Table 2, D-6 clone, drawing 57 (artemisinin) = 100
[7] = Table 3, tricyclic analogs, W-2 clone, read-out: In vitro IC50 W-2 clone
[8] = Table 3, tricyclic analogs, W-2 clone
[9] = Table 3, tricyclic analogs, D-6 clone, read-out: In vitro IC50 D-6 clone
[10] = Table 3, tricyclic analogs, D-6 clone

Compound | IC50 [1, 3] [ng/mL] | Relative potency (W-2 clone) [1, 4] | IC50 [2, 5] [ng/mL] | Relative potency (D-6 clone) [2, 6] | other results
C[C@@]12CC[C@H]3CCC[C@H]4CC(=O)O[C@H](O1)[C@@]34OO2 (relative stereo) [compound 4580, (±)-6,9-desmethylartemisinin] | 3.92 (≈ 15.4 nM) | 48 | 33.7 (≈ 133 nM) | 12 | –
CCC1(CC)OO[C@]23CCCC[C@H]2[C@@H](C)C(=O)O[C@@H]3O1 (relative stereo) [compound 4583] | – | – | – | – | IC50 [1, 7]: 74.2 ng/mL (≈ 261 nM); Relative potency (W-2 clone) [1, 8]: 3; IC50 [2, 9]: 29.7 ng/mL (≈ 105 nM); Relative potency (D-6 clone) [2, 10]: 15
O=C1C[C@@H]2CCC[C@@H]3C[C@H]4OO[C@]32[C@H](O1)O4 (relative stereo) [compound 4589, Octahydro-3,11-epoxy-11H-pyrano[4.3-j]-1,2-benzodioxan-9(3H) -one] | 88.7 (≈ 392 nM) | 2 | 129 (≈ 572 nM) | 2 | –
CCCC[C@H]1C(=O)O[C@@H]2OC(C)(C)OO[C@@]23CCCC[C@@H]13 (relative stereo) [compound 4590, 7-Butyl-3,3-dimethyl-4aH,6H-hexahydro-1,2,4-trioxino[6.5-j] benzopyran-6-one] | – | – | – | – | IC50 [1, 7]: 11.8 ng/mL (≈ 39.5 nM); Relative potency (W-2 clone) [1, 8]: 7; IC50 [2, 9]: 13.9 ng/mL (≈ 46.8 nM); Relative potency (D-6 clone) [2, 10]: 5
CC1(C)OO[C@]23CCCC[C@H]2CC(=O)O[C@@H]3O1 (relative stereo) [compound 4593, (±)-Hexahydro-3,3-dimethyl-4aH,6H-1,2,4-trioxino-[6.5-j][2] benzopyran-6-one] | – | – | – | – | IC50 [1, 7]: 178 ng/mL (≈ 735 nM); Relative potency (W-2 clone) [1, 8]: 0.5; IC50 [2, 9]: 189 ng/mL (≈ 779 nM); Relative potency (D-6 clone) [2, 10]: 0.4
C[C@@H]1CC[C@H]2[C@@H](C)C(=O)O[C@@H]3O[C@@]4(C)CC[C@@H]1[C@]32OO4 [(+)-Artemisinin, reference compound] | 2.11 (≈ 7.47 nM) | 100 | 4.44 (≈ 15.7 nM) | 100 | –
CCN(CC)CCCC(C)Nc1ccnc2cc(Cl)ccc12 (centres unmarked) [Chloroquine, reference compound] | – | 7 | – | 83 | IC50 ([1]; read-out: IC50 W-2 clone): 31.7 ng/mL (≈ 99.1 nM); IC50 ([2]; read-out: IC50 D-6 clone): 5.33 ng/mL (≈ 16.7 nM)
OC(c1cc(C(F)(F)F)nc2c(C(F)(F)F)cccc12)C1CCCCN1 (centres unmarked) [Mefloquine, reference compound] | 2.4 (≈ 6.34 nM) | 88 | 43.7 (≈ 116 nM) | 10 | –
C[C@@H]1CC[C@H]2C(C)(C)C(=O)O[C@@H]3O[C@@]4(C)CC[C@@H]1[C@]32OO4 [compound 2800, (+)-Octahydro-3,12-epoxy-3,6,9,9-tetramethyl-12H-pyrano [4.3-j]-1,2-benzo dioxepin-10(3H)-one] | 25.5 (≈ 86.1 nM) | 0.63 | 20.9 (≈ 70.5 nM) | 2.1 | –
C[C@@H]1CC[C@H]2CC(=O)N(Cc3ccccc3)[C@@H]3O[C@@]4(C)CC[C@@H]1[C@@]23OO4 [compound 2803] | 0.07 (≈ 0.196 nM) | 171 | 0.45 (≈ 1.26 nM) | 149 | –
C[C@@H]1CC[C@H]2CC(=O)N(CC(=O)O)[C@@H]3O[C@@]4(C)CC[C@@H]1[C@@]23OO4 [compound 2804] | – | – | 122 (≈ 376 nM) | 5.5 | –
C[C@@H]1CC[C@H]2[C@@H](C)C(=O)O[C@@H]3OC(C)(C)OO[C@@]32C1 [compound 2816] | – | – | – | – | IC50 [1, 7]: 1.46 ng/mL (≈ 5.4 nM); Relative potency (W-2 clone) [1, 8]: 75; IC50 [2, 9]: 1.29 ng/mL (≈ 4.77 nM); Relative potency (D-6 clone) [2, 10]: 108
CCCCCC[C@H]1C(=O)O[C@@H]2O[C@@]3(C)CC[C@H]4[C@H](C)CC[C@@H]1[C@@]24OO3 [compound 2817] | 0.02 (≈ 0.0567 nM) | 550 | 0.03 (≈ 0.0851 nM) | 467 | –
CCCCCCCCCCCCCC[C@H]1C(=O)O[C@@H]2O[C@@]3(C)CC[C@H]4[C@H](C)CC[C@@H]1[C@@]24OO3 [compound 2818] | 63.9 (≈ 138 nM) | .0017 | 81.3 (≈ 175 nM) | .0017 | –
CC(C)[C@H]1C(=O)O[C@@H]2O[C@@]3(C)CC[C@H]4[C@H](C)CC[C@@H]1[C@@]24OO3 [compound 2820] | 0.58 (≈ 1.87 nM) | 84 | 0.27 (≈ 0.87 nM) | 203 | –
C[C@@H]1CC[C@H]2[C@@H](CCCc3ccccc3)C(=O)O[C@@H]3O[C@@]4(C)CC[C@@H]1[C@]32OO4 [compound 2821] | 0.11 (≈ 0.285 nM) | 445 | 0.09 (≈ 0.233 nM) | 611 | –
CC(C)CC[C@H]1C(=O)O[C@@H]2O[C@@]3(C)CC[C@H]4[C@H](C)CC[C@@H]1[C@@]24OO3 [compound 2822] | 0.5 (≈ 1.48 nM) | 98 | 0.35 (≈ 1.03 nM) | 157 | –
C[C@@H]1CCC[C@@]23CO[C@@](C)(CC[C@@H]12)OO3 [compound 2823] | – | – | – | – | IC50 [2, 9]: 0.8 ng/mL (≈ 3.77 nM); Relative potency (D-6 clone) [2, 10]: 37
CC1C(=O)OC(O[Si](C)(C)C(C)(C)C)C2(OO)CCCCC12 (centres unmarked) [compound 4581] | – | – | – | – | IC50 ([1]; read-out: In vitro IC50 W-2 clone): 2890 ng/mL (≈ 8750 nM); Relative potency (W-2 clone) [1, 8]: 0; IC50 ([2]; read-out: In vitro IC50 D-6 clone): 3020 ng/mL (≈ 9130 nM); Relative potency (D-6 clone) [2, 10]: 0
C[C@@H]1CC[C@H]2CC(=O)O[C@@H]3O[C@@]4(C)CC[C@@H]1[C@@]23OO4 [compound 4584] | 0.31 (≈ 1.16 nM) | 650 | 2.32 (≈ 8.65 nM) | 180 | –
C[C@@H]1CC[C@H]2CC(=O)N(C)[C@@H]3O[C@@]4(C)CC[C@@H]1[C@@]23OO4 [compound 4585, (-)-Octahydro-3,6,11-trimethyl-3,12-epoxy-12H-pyridino-[4.3-j] 1,2-benzo dioxepin-10(3H)-one] | 0.42 (≈ 1.49 nM) | 502 | 2.05 (≈ 7.29 nM) | 214 | times as potent as QHS against the W-2 clone ([1]; W-2 clone): 5 times; times as potent as QHS against the D-6 clone ([2]; D-6 clone): 21.7 times
CC[C@H]1C(=O)O[C@@H]2O[C@@]3(C)CC[C@H]4[C@H](C)CC[C@@H]1[C@@]24OO3 [compound 4586] | 0.18 (≈ 0.607 nM) | 1226 | 0.72 (≈ 2.43 nM) | 642 | times as potent as QHS against the W-2 clone ([1]; W-2 clone): 11.7 times; times as potent as QHS against the D-6 clone ([2]; D-6 clone): 6.17 times
C[C@H]1[C@@H](OOC(C)(C)C)O[C@@H]2O[C@@]3(C)CC[C@H]4[C@H](C)CC[C@@H]1[C@@]24OO3 [compound 4588] | 0.41 (≈ 1.15 nM) | 656 | 0.53 (≈ 1.49 nM) | 1054 | –
C[C@@H]1CC[C@H]2[C@@H](CC(=O)O)C(=O)O[C@@H]3O[C@@]4(C)CC[C@@H]1[C@]32OO4 [compound 4595] | 151 (≈ 463 nM) | 0.3 | 830 (≈ 2540 nM) | 0.15 | –
CCC(=O)OCC(CC)(CC)OOC(C)(C)C [compound 4596, 2-t-Butylperoxy-2-ethylbutyl proprionate] | – | – | – | – | In vitro IC50 W-2 clone [1, 8]: Inactive; In vitro IC50 D-6 clone [2, 10]: Inactive
CCCC(=O)OCC(CC)(CC)OOC(C)(C)C [compound 4597, 2-t-Butylperoxy-2-ethylbutyl Butyrate] | – | – | – | – | In vitro IC50 W-2 clone [1, 8]: Inactive; In vitro IC50 D-6 clone [2, 10]: Inactive
CCO[C@H]1O[C@@H]2O[C@@]3(C)CC[C@H]4[C@H](C)CC[C@@H]([C@H]1CC)[C@@]24OO3 [compound 4598] | 0.18 (≈ 0.551 nM) | 272 | 0.22 (≈ 0.674 nM) | 550 | –
CCC[C@H]1C(=O)O[C@@H]2O[C@@]3(C)CC[C@H]4[C@H](C)CC[C@@H]1[C@@]24OO3 [compound 4599] | 0.04 (≈ 0.129 nM) | 1225 | 0.22 (≈ 0.709 nM) | 550 | –
(-)-Hexahydro-3,3,10a,11β-tetramethyl-4aH,6H-1,2,4-trioxino-[6.5-j]benzopyran-6-one [compound 4592] | – | – | – | – | In vitro IC50 D-6 clone [2, 10]: 1.28 ng/mL; Relative potency (D-6 clone) [2, 10]: 58

Reference: US5216175A, “Antimalarial analogs of artemisinin” (SRI International, priority 1990, dated 1993)
